Source: PubChem BioAssay AID1963842 (Molecular Pharmacology Branch, DTP, NCI, 2024)

System: 677734-321-R-J1-PDC complex spheroid viability
Assay: Anticancer human tumor 677734-321-R-J1-PDC patient-derived soft tissue sarcoma cell line growth inhibition [POLQ]
Settings: for IC50: curve of first compound; for viability, T/C: stronger effect = lower value
How it was run: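 Growth inhibition in 3D: complex spheroids (tumor PDC, HUVEC, MSC) treated with POLQ inhibitor combinations; where Cmax unknown, highest tested concentration 10 microM, except SN-38 at 1 microM.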

[1] = second compound 0.0316 µM, first compound 0.0316 µM
[2] = second compound 0.0316 µM, first compound 0.1 µM
[3] = second compound 0.0316 µM, first compound 0.316 µM
[4] = second compound 0.0316 µM, first compound 1 µM
[5] = second compound 0.0316 µM, first compound 3.16 µM
[6] = second compound 0.0316 µM, first compound 10 µM
[7] = second compound 0.1 µM, first compound 0.0316 µM
[8] = second compound 0.1 µM, first compound 0.1 µM
[9] = second compound 0.1 µM, first compound 0.316 µM
[10] = second compound 0.1 µM, first compound 1 µM
[11] = second compound 0.1 µM, first compound 3.16 µM
[12] = second compound 0.1 µM, first compound 10 µM
[13] = second compound 0.316 µM, first compound 0.0316 µM
[14] = second compound 0.316 µM, first compound 0.1 µM
[15] = second compound 0.316 µM, first compound 0.316 µM
[16] = second compound 0.316 µM, first compound 1 µM
[17] = second compound 0.316 µM, first compound 3.16 µM
[18] = second compound 0.316 µM, first compound 10 µM
[19] = second compound 1 µM, first compound 0.0316 µM
[20] = second compound 1 µM, first compound 0.1 µM
[21] = second compound 1 µM, first compound 0.316 µM
[22] = second compound 1 µM, first compound 1 µM
[23] = second compound 1 µM, first compound 3.16 µM
[24] = second compound 1 µM, first compound 10 µM
[25] = second compound 3.16 µM, first compound 0.0316 µM
[26] = second compound 3.16 µM, first compound 0.1 µM
[27] = second compound 3.16 µM, first compound 0.316 µM
[28] = second compound 3.16 µM, first compound 1 µM
[29] = second compound 3.16 µM, first compound 3.16 µM
[30] = second compound 3.16 µM, first compound 10 µM
[31] = second compound 10 µM, first compound 0.0316 µM
[32] = second compound 10 µM, first compound 0.1 µM
[33] = second compound 10 µM, first compound 0.316 µM
[34] = second compound 10 µM, first compound 1 µM
[35] = second compound 10 µM, first compound 3.16 µM
[36] = second compound 10 µM, first compound 10 µM
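Further: spheroids exposed to compounds for one week.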
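Wherever viability, T/C is given: 100% = vehicle DMSO treated spheroids.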

SMILES: CCCS(=O)(=O)Nc1ccc(F)c(C(=O)c2c[nH]c3ncc(-c4ccc(Cl)cc4)cc23)c1F + COC1C(OC(N)=O)C(O)C(Oc2ccc3c(O)c(NC(=O)c4ccc(O)c(CC=C(C)C)c4)c(=O)oc3c2C)OC1(C)C
- IC50 (second compound 0.0316 µM): 6530 nM
- IC50 (second compound 0.1 µM): 6390 nM
- IC50 (second compound 0.316 µM): 6590 nM
- IC50 (second compound 1 µM): 6510 nM
- IC50 (second compound 3.16 µM): 6730 nM
- IC50 (second compound 10 µM): 6490 nM
- viability, T/C [1]: 103%
- viability, T/C [2]: 109%
- viability, T/C [3]: 101%
- viability, T/C [4]: 118%
- viability, T/C [5]: 106%
- viability, T/C [6]: 16.7%
- viability, T/C [7]: 108%
- viability, T/C [8]: 107%
- viability, T/C [9]: 104%
- viability, T/C [10]: 120%
- viability, T/C [11]: 104%
- viability, T/C [12]: 15.3%
- viability, T/C [13]: 105%
- viability, T/C [14]: 110%
- viability, T/C [15]: 109%
- viability, T/C [16]: 110%
- viability, T/C [17]: 109%
- viability, T/C [18]: 16.6%
- viability, T/C [19]: 103%
- viability, T/C [20]: 107%
- viability, T/C [21]: 101%
- viability, T/C [22]: 112%
- viability, T/C [23]: 109%
- viability, T/C [24]: 16.5%
- viability, T/C [25]: 106%
- viability, T/C [26]: 101%
- viability, T/C [27]: 111%
- viability, T/C [28]: 112%
- viability, T/C [29]: 112%
- viability, T/C [30]: 19.3%
- viability, T/C [31]: 107%
- viability, T/C [32]: 104%
- viability, T/C [33]: 109%
- viability, T/C [34]: 105%
- viability, T/C [35]: 105%
- viability, T/C [36]: 17.2%

SMILES: CCc1cc2c(N3CCc4c(cc(Cn5ccnc5)cc4-c4cn(C)nc4C(F)(F)F)C3=O)cc(C)nc2c(OC)n1 + COC1C(OC(N)=O)C(O)C(Oc2ccc3c(O)c(NC(=O)c4ccc(O)c(CC=C(C)C)c4)c(=O)oc3c2C)OC1(C)C
- IC50 (second compound 0.0316 µM): > 10000 nM
- IC50 (second compound 0.1 µM): > 10000 nM
- IC50 (second compound 0.316 µM): > 10000 nM
- IC50 (second compound 1 µM): > 10000 nM
- IC50 (second compound 3.16 µM): > 10000 nM
- IC50 (second compound 10 µM): > 10000 nM
- viability, T/C [1]: 111%
- viability, T/C [2]: 110%
- viability, T/C [3]: 94.5%
- viability, T/C [4]: 98.2%
- viability, T/C [5]: 77.7%
- viability, T/C [6]: 53.4%
- viability, T/C [7]: 106%
- viability, T/C [8]: 111%
- viability, T/C [9]: 97.7%
- viability, T/C [10]: 98.8%
- viability, T/C [11]: 73.7%
- viability, T/C [12]: 59.3%
- viability, T/C [13]: 112%
- viability, T/C [14]: 108%
- viability, T/C [15]: 98.7%
- viability, T/C [16]: 96.9%
- viability, T/C [17]: 79.5%
- viability, T/C [18]: 49.4%
- viability, T/C [19]: 124%
- viability, T/C [20]: 105%
- viability, T/C [21]: 108%
- viability, T/C [22]: 93.4%
- viability, T/C [23]: 75.5%
- viability, T/C [24]: 52.9%
- viability, T/C [25]: 109%
- viability, T/C [26]: 111%
- viability, T/C [27]: 103%
- viability, T/C [28]: 98.2%
- viability, T/C [29]: 82%
- viability, T/C [30]: 54.4%
- viability, T/C [31]: 108%
- viability, T/C [32]: 110%
- viability, T/C [33]: 98.4%
- viability, T/C [34]: 91.4%
- viability, T/C [35]: 67.3%
- viability, T/C [36]: 50.8%

SMILES: CC1COCCN1c1cc(C2(O)CC3CCC(C2)O3)c2cnn(-c3ccn[nH]3)c2n1 (stereo not drawn) + COC1C(OC(N)=O)C(O)C(Oc2ccc3c(O)c(NC(=O)c4ccc(O)c(CC=C(C)C)c4)c(=O)oc3c2C)OC1(C)C
- IC50 (second compound 0.0316 µM): 131 nM
- IC50 (second compound 0.1 µM): 150 nM
- IC50 (second compound 0.316 µM): 87.2 nM
- IC50 (second compound 1 µM): 115 nM
- IC50 (second compound 3.16 µM): 97 nM
- IC50 (second compound 10 µM): 85.8 nM
- viability, T/C [1]: 87.1%
- viability, T/C [2]: 58.1%
- viability, T/C [3]: 24.2%
- viability, T/C [4]: 16.8%
- viability, T/C [5]: 17.9%
- viability, T/C [6]: 16.3%
- viability, T/C [7]: 92.9%
- viability, T/C [8]: 64.7%
- viability, T/C [9]: 22.7%
- viability, T/C [10]: 16.4%
- viability, T/C [11]: 13.5%
- viability, T/C [12]: 13.3%
- viability, T/C [13]: 80.2%
- viability, T/C [14]: 46.2%
- viability, T/C [15]: 22.6%
- viability, T/C [16]: 19.1%
- viability, T/C [17]: 14.7%
- viability, T/C [18]: 13.8%
- viability, T/C [19]: 92.5%
- viability, T/C [20]: 54.2%
- viability, T/C [21]: 18.6%
- viability, T/C [22]: 15.9%
- viability, T/C [23]: 17.1%
- viability, T/C [24]: 14.2%
- viability, T/C [25]: 85.3%
- viability, T/C [26]: 49%
- viability, T/C [27]: 25.4%
- viability, T/C [28]: 16.7%
- viability, T/C [29]: 15.2%
- viability, T/C [30]: 14.6%
- viability, T/C [31]: 89.6%
- viability, T/C [32]: 43.9%
- viability, T/C [33]: 21.3%
- viability, T/C [34]: 15.6%
- viability, T/C [35]: 16.1%
- viability, T/C [36]: 15.4%

SMILES: COc1cc(C2c3cc4c(cc3C(OC3OC5COC(C)OC5C(O)C3O)C3COC(=O)C23)OCO4)cc(OC)c1O (stereo not drawn) + COC1C(OC(N)=O)C(O)C(Oc2ccc3c(O)c(NC(=O)c4ccc(O)c(CC=C(C)C)c4)c(=O)oc3c2C)OC1(C)C
- IC50 (second compound 0.0316 µM): 711 nM
- IC50 (second compound 0.1 µM): 732 nM
- IC50 (second compound 0.316 µM): 938 nM
- IC50 (second compound 1 µM): 667 nM
- IC50 (second compound 3.16 µM): 843 nM
- IC50 (second compound 10 µM): 704 nM
- viability, T/C [1]: 107%
- viability, T/C [2]: 91.5%
- viability, T/C [3]: 59.5%
- viability, T/C [4]: 47.8%
- viability, T/C [5]: 23.8%
- viability, T/C [6]: 11.1%
- viability, T/C [7]: 105%
- viability, T/C [8]: 94.7%
- viability, T/C [9]: 55%
- viability, T/C [10]: 47.2%
- viability, T/C [11]: 30.2%
- viability, T/C [12]: 10.7%
- viability, T/C [13]: 100%
- viability, T/C [14]: 93.8%
- viability, T/C [15]: 70.8%
- viability, T/C [16]: 51.3%
- viability, T/C [17]: 23.9%
- viability, T/C [18]: 12%
- viability, T/C [19]: 111%
- viability, T/C [20]: 87.2%
- viability, T/C [21]: 60.4%
- viability, T/C [22]: 45.3%
- viability, T/C [23]: 24.3%
- viability, T/C [24]: 9.55%
- viability, T/C [25]: 111%
- viability, T/C [26]: 93.6%
- viability, T/C [27]: 62.6%
- viability, T/C [28]: 54.9%
- viability, T/C [29]: 20.4%
- viability, T/C [30]: 9%
- viability, T/C [31]: 110%
- viability, T/C [32]: 98.2%
- viability, T/C [33]: 58.2%
- viability, T/C [34]: 47.6%
- viability, T/C [35]: 23.7%
- viability, T/C [36]: 11%
